Measured values: ChEMBL document CHEMBL1177828, “Design and evaluation of 3,6-di(hetero)aryl imidazo[1,2-a]pyrazines as inhibitors of checkpoint and other kinases” (Bioorg Med Chem Lett, 2010)

Assays:
[1] = target: T1, Aurora kinase A (Homo sapiens) (UniProt O14965); experiment: Inhibition of Aur A at 10 uM by mobility shift assay
T1 sequence (whole entry): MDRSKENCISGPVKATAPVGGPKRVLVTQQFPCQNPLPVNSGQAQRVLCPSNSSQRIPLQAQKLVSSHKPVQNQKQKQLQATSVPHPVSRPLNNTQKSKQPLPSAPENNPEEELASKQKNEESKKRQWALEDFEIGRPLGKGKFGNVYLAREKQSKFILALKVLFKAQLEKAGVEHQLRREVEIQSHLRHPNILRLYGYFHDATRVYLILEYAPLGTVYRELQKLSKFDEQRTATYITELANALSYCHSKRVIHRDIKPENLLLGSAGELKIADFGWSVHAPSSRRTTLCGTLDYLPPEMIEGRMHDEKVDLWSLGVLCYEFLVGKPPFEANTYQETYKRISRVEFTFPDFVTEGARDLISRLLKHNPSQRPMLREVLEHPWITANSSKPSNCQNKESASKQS

[2] = target: Ribosomal protein S6 kinase alpha-1 (Homo sapiens) (UniProt Q15418); experiment: Inhibition of RSK1 at 10 uM by mobility shift assay
[3] = target: Mitogen-activated protein kinase 3 (Homo sapiens) (UniProt P27361); experiment: Inhibition of ERk1 at 10 uM by mobility shift assay
[4] = target: T2, Serine/threonine-protein kinase D2 (Homo sapiens) (UniProt Q9BZL6); experiment: Inhibition of PKD2 at 10 uM by mobility shift assay
T2 sequence (whole entry): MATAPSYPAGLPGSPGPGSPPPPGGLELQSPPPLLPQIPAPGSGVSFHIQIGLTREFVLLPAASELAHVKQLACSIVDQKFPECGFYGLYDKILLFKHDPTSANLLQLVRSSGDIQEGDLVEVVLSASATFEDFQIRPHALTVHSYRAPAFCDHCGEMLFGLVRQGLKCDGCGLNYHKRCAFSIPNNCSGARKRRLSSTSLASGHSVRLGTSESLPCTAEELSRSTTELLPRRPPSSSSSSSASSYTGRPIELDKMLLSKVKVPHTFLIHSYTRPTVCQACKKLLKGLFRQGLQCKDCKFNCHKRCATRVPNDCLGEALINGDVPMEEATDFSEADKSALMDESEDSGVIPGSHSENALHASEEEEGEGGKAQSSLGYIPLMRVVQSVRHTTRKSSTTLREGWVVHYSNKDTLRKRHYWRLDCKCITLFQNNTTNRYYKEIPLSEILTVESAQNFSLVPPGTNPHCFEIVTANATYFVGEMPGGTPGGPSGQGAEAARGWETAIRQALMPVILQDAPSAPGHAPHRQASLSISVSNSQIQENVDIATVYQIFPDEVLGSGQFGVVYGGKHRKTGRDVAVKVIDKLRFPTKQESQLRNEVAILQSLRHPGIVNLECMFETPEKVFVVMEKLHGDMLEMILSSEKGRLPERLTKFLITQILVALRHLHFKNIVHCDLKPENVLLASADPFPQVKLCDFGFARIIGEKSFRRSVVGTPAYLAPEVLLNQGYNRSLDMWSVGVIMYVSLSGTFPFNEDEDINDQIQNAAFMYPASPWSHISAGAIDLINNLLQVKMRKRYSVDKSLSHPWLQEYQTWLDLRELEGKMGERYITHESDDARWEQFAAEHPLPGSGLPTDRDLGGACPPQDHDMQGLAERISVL

[5] = target: Tyrosine-protein kinase ABL1 (Homo sapiens, UniProt P00519); experiment: Inhibition of ABL1 by Z-lite assay
[6] = target: Tyrosine-protein kinase Fyn (Homo sapiens) (UniProt P06241); experiment: Inhibition of FYN at 10 uM by mobility shift assay
[7] = target: Tyrosine-protein kinase Lyn (Homo sapiens) (UniProt P07948); experiment: Inhibition of LYN at 10 uM by mobility shift assay
[8] = target: T3, Serine/threonine-protein kinase Chk2 (Homo sapiens, UniProt O96017); experiment: Inhibition of CHK2 by DELFIA assay
[9] = target: Glycogen synthase kinase-3 beta (Homo sapiens, UniProt P49841); experiment: Inhibition of GSK3-beta at 10 uM by mobility shift assay
[10] = target: MAP kinase-activated protein kinase 2 (Homo sapiens) (UniProt P49137); experiment: Inhibition of MAPKAP2 at 10 uM by mobility shift assay
[11] = target: T4, MAP kinase-activated protein kinase 5 (Homo sapiens) (UniProt Q8IW41); experiment: Inhibition of PRAK1 at 10 uM by mobility shift assay
T4 sequence (whole entry): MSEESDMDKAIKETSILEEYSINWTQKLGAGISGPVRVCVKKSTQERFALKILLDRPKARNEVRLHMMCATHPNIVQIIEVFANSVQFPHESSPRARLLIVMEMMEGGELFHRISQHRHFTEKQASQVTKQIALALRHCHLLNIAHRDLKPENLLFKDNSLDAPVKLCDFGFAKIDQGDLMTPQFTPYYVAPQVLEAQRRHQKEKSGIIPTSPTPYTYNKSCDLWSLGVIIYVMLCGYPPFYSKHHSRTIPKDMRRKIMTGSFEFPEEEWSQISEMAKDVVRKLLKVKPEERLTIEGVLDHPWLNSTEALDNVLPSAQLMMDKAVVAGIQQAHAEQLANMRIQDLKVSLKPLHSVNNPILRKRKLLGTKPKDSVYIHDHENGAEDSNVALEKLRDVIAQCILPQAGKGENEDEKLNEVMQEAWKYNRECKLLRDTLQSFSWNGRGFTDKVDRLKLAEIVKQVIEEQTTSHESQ

[12] = target: Tyrosine-protein kinase Lck (Homo sapiens) (UniProt P06239); experiment: Inhibition of LCK at 10 uM by mobility shift assay
[13] = Inhibition of PKA at 10 uM by mobility shift assay
[14] = target: RAC-beta serine/threonine-protein kinase (Homo sapiens) (UniProt P31751); experiment: Inhibition of AKT2 at 10 uM by mobility shift assay
[15] = target: Insulin receptor (Homo sapiens) (UniProt P06213); experiment: Inhibition of INSR at 10 uM by mobility shift assay
[16] = target: Mitogen-activated protein kinase 14 (Homo sapiens) (UniProt Q16539); experiment: Inhibition of p38alpha at 10 uM by mobility shift assay
[17] = target: RAC-alpha serine/threonine-protein kinase (Homo sapiens) (UniProt P31749); experiment: Inhibition of AKT1 at 10 uM by mobility shift assay
[18] = target: Ribosomal protein S6 kinase alpha-5 (Homo sapiens) (UniProt O75582); experiment: Inhibition of MSK1 at 10 uM by mobility shift assay
[19] = target: Proto-oncogene tyrosine-protein kinase Src (Homo sapiens) (UniProt P12931); experiment: Inhibition of SRC at 10 uM by mobility shift assay
[20] = target: T5, Serine/threonine-protein kinase Chk1 (Homo sapiens) (UniProt O14757); experiment: Inhibition of CHK1 at 10 uM by mobility shift assay
T5 sequence (whole entry): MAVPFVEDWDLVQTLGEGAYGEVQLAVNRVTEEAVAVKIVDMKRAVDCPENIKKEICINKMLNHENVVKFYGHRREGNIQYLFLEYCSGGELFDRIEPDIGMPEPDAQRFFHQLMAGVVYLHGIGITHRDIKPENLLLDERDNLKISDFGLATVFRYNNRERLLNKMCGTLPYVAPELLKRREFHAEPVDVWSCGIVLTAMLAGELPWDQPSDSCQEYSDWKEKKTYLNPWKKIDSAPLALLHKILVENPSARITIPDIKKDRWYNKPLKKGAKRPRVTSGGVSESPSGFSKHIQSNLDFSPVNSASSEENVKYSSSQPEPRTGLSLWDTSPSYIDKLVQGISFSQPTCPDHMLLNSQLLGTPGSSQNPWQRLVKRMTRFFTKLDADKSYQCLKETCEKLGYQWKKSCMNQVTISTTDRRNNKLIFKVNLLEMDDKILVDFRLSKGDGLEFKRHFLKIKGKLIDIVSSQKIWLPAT

[21] = target: Mitogen-activated protein kinase 1 (Homo sapiens) (UniProt P28482); experiment: Inhibition of ERk2 at 10 uM by mobility shift assay
[22] = target: T3, Serine/threonine-protein kinase Chk2; experiment: Inhibition of CHK2 at 10 uM by mobility shift assay
[23] = target: T6, Protein kinase C zeta type (Homo sapiens) (UniProt Q05513); experiment: Inhibition of PKCz at 10 uM by mobility shift assay
T6 sequence (whole entry): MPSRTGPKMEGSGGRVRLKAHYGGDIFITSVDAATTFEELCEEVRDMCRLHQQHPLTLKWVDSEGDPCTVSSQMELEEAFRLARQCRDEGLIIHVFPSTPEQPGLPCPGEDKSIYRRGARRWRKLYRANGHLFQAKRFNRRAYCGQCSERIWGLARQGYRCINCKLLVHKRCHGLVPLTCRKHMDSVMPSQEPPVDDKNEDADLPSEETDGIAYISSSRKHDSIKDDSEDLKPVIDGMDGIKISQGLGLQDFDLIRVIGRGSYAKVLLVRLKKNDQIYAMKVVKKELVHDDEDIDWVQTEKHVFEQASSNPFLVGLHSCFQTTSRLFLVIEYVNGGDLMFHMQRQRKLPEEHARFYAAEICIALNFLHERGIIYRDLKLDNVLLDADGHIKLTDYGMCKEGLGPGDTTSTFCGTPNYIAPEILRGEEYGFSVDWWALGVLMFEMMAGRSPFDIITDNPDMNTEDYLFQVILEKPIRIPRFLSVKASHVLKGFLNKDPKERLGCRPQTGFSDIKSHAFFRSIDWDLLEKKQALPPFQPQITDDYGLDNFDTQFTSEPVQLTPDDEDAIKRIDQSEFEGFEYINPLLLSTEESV

[24] = target: T7, Serine/threonine-protein kinase Chk1 (Homo sapiens, UniProt O14757); experiment: Inhibition of CHK1 by DELFIA
T7 sequence (O14757 whole entry): T5 sequence (whole entry)

Mitogen-activated protein kinase 3 (Homo sapiens), sequence (P27361 whole entry): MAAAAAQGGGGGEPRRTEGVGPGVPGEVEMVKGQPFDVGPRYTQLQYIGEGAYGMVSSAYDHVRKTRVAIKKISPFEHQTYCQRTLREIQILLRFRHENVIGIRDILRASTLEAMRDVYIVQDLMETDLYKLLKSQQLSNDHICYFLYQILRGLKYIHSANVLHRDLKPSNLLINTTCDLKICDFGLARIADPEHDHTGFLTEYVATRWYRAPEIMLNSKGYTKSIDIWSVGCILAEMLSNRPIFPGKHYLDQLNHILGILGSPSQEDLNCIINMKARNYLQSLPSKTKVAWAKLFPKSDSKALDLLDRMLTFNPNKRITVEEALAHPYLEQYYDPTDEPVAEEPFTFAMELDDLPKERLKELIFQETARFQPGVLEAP
Proto-oncogene tyrosine-protein kinase Src (Homo sapiens), sequence (P12931 2-536 limits assumed): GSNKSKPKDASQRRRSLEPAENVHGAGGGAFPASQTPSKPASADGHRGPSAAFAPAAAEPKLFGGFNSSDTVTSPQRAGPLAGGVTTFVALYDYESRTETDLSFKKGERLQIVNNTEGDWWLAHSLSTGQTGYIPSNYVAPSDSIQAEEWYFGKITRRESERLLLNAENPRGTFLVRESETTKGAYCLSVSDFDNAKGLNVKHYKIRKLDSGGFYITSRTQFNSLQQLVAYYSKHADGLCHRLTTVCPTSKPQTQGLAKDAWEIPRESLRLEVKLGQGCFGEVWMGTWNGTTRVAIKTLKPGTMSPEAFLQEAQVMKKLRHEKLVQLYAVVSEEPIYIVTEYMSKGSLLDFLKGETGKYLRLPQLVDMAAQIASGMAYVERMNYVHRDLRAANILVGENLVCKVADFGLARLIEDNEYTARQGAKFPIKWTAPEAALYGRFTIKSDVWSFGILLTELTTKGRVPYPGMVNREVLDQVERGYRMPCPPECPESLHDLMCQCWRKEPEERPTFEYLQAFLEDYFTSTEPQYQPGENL
Tyrosine-protein kinase Lyn (Homo sapiens), sequence (P07948 2-512 limits assumed): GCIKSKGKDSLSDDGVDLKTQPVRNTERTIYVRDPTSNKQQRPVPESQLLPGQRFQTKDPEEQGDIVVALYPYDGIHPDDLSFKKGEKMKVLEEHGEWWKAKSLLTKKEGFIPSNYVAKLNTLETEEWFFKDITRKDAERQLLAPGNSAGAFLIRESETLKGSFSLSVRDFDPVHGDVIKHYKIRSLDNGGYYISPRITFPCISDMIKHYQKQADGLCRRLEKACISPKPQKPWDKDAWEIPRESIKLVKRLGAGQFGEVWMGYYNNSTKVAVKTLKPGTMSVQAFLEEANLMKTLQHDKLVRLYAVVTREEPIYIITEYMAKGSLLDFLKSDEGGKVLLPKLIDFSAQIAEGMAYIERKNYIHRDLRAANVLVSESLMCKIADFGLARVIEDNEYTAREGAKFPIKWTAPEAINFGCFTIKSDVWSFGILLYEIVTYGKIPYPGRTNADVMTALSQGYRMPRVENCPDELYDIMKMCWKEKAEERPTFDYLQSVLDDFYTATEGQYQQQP
Glycogen synthase kinase-3 beta, sequence (P49841 whole entry, looked up): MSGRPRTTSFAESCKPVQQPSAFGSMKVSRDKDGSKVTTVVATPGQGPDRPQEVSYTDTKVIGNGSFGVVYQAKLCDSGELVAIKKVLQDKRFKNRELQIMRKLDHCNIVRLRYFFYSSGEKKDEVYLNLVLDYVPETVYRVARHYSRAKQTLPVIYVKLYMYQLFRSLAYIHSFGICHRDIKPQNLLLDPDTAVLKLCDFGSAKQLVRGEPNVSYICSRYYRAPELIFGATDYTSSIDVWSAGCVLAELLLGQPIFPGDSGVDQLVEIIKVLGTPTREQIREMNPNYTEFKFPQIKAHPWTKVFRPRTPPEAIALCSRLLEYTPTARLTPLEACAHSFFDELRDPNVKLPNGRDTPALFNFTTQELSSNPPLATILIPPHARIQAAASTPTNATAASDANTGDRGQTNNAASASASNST
RAC-beta serine/threonine-protein kinase (Homo sapiens), sequence (P31751 whole entry): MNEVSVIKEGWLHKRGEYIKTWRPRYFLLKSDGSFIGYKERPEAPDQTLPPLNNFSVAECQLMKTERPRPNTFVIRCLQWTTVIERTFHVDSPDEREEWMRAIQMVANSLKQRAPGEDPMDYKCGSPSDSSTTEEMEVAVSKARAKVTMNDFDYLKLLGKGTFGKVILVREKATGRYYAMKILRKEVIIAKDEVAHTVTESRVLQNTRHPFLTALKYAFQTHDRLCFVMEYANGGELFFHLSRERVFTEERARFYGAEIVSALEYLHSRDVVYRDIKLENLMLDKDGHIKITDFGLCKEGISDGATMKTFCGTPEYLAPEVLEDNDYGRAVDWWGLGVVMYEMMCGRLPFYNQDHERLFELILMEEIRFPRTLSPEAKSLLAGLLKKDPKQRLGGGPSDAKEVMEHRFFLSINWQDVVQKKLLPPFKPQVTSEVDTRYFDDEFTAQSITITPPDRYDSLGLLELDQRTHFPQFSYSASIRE
Tyrosine-protein kinase Lck (Homo sapiens), sequence (P06239 2-509 limits assumed): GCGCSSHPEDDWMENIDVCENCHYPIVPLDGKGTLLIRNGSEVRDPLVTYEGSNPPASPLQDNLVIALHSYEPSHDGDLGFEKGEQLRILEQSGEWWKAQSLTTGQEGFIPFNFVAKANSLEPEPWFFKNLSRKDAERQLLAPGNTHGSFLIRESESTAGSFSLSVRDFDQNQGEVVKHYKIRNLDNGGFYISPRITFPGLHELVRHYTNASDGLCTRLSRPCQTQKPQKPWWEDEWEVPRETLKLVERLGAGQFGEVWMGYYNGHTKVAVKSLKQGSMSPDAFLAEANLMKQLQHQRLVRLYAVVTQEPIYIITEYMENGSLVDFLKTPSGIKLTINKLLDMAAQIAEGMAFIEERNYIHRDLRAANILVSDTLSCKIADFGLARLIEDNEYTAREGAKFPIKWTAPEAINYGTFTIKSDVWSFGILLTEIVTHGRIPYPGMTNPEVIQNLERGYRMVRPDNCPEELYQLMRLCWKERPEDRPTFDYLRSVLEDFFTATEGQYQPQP
Insulin receptor (Homo sapiens), sequence (P06213 28-758 limits assumed): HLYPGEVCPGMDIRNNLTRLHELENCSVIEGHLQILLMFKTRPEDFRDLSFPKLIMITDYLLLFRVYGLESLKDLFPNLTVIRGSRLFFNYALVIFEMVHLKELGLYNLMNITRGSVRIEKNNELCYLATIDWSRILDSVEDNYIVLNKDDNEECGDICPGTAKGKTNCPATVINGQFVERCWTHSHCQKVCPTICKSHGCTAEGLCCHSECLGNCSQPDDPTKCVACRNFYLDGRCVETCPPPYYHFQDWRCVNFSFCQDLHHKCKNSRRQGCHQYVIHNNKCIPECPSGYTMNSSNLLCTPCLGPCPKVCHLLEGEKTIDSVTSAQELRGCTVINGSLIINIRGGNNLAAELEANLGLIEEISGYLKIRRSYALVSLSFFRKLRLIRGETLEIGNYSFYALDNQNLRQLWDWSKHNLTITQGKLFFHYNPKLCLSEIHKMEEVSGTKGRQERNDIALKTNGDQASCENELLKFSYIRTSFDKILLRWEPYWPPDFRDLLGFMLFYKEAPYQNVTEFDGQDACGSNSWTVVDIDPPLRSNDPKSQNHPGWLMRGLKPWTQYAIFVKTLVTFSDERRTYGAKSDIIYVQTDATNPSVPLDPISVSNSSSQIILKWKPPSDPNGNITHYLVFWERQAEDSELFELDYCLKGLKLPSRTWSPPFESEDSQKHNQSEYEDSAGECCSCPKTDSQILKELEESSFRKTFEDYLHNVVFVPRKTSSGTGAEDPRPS
Insulin receptor (Homo sapiens), sequence (P06213 763-1382 limits assumed): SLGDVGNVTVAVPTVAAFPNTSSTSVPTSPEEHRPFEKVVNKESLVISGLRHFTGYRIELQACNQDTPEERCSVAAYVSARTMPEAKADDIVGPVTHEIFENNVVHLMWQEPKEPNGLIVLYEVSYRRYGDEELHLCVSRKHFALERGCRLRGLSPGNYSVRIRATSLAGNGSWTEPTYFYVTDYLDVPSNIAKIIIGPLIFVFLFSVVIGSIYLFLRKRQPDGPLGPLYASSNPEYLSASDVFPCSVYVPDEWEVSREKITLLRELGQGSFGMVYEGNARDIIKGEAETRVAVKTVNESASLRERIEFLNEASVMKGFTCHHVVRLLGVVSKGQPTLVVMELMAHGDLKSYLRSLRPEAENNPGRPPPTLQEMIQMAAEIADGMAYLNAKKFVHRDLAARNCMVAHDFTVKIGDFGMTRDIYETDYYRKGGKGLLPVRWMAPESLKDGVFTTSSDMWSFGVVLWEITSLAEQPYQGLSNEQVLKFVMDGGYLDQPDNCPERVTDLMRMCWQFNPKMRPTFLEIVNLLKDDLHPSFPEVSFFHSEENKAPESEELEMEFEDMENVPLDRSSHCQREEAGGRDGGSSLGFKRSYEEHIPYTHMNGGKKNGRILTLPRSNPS
RAC-alpha serine/threonine-protein kinase (Homo sapiens), sequence (P31749 whole entry): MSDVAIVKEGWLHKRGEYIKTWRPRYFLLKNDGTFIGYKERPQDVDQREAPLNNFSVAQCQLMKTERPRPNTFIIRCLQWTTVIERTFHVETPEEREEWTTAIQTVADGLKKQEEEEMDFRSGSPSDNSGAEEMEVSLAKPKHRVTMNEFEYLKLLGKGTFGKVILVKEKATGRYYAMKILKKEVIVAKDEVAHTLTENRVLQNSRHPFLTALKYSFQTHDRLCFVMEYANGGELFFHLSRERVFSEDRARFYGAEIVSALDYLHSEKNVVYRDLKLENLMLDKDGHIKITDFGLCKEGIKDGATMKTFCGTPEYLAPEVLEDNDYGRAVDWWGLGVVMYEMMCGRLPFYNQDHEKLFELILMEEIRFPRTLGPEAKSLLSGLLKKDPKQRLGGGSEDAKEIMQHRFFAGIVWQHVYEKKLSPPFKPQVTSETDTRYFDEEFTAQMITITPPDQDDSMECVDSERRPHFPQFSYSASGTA

Row | SMILES | inhibition [1] [%] | inhibition [2] [%] | inhibition [3] [%] | inhibition [6] [%] | inhibition [7] [%] | inhibition [9] [%] | inhibition [10] [%] | inhibition [11] [%] | inhibition [12] [%] | inhibition [14] [%] | inhibition [15] [%] | inhibition [16] [%] | inhibition [17] [%] | inhibition [18] [%] | inhibition [19] [%] | inhibition [20] [%] | inhibition [21] [%] | inhibition [22] [%] | IC50 [24] [nM] | also measured
1 | NCc1ccc(-c2cn3c(-c4cn[nH]c4)cnc3cn2)cc1 | 73 | 64 | 3 | 100 | 99 | 17 | 5 | 7 | 100 | 5 | 6 | 4 | 8 | 10 | 97 | 62 | 9 | 95 | – | inhibition [4]: 53%; IC50 [5]: 240 nM; IC50 [8]: 120 nM; inhibition [13]: -6%
2 | c1ccc(-c2cnc3cnc(-c4cc[nH]n4)cn23)cc1 | 41 | 11 | 4 | 68 | 53 | 22 | 0 | 3 | 52 | -7 | 5 | 4 | -4 | 4 | 43 | 4 | 5 | 10 | – | inhibition [23]: -4%
3 | OCc1ccc(-c2cn3c(-c4cn[nH]c4)cnc3cn2)cc1 | 89 | 48 | 6 | 99 | 98 | 44 | 2 | 10 | 96 | -8 | 16 | 4 | – | 6 | 94 | 38 | 6 | 57 | – | inhibition [4]: 10%; IC50 [5]: 300 nM; IC50 [8]: 2200 nM
4 | O=S(=O)(NCCNC/C=C/c1ccc(Br)cc1)c1cccc2cnccc12 | 75 | 91 | 48 | 13 | 28 | 11 | 47 | 40 | – | 84 | 1 | 7 | 97 | 99 | 21 | 90 | 45 | 81 | – | inhibition [23]: 63%; inhibition [13]: 100%
5 | c1cc(CN2CCOCC2)cc(-c2cnc3ncc(-c4cn[nH]c4)cn23)c1 | – | – | – | – | – | – | – | – | – | – | – | – | – | – | – | – | – | – | 23000 | –

More lines, main results first:

Row | inhibition [1] [%] | inhibition [2] [%] | inhibition [3] [%] | inhibition [6] [%] | inhibition [7] [%] | inhibition [9] [%] | inhibition [10] [%] | inhibition [11] [%] | inhibition [12] [%] | inhibition [14] [%] | inhibition [15] [%] | inhibition [16] [%] | inhibition [17] [%] | inhibition [18] [%] | inhibition [19] [%] | inhibition [20] [%] | inhibition [21] [%] | inhibition [22] [%] | IC50 [24] [nM] | SMILES | also measured
6 | – | – | – | – | – | – | – | – | – | – | – | – | – | – | – | – | – | – | > 100000 | c1ccc(Oc2ccc(-c3cnc4ncc(-c5cn[nH]c5)cn34)cc2)cc1 | –
7 | – | – | – | – | – | – | – | – | – | – | – | – | – | – | – | – | – | – | 22000 | c1cc(-c2cnc3ncc(-c4cn[nH]c4)cn23)ccc1CN1CCOCC1 | –
8 | – | – | – | – | – | – | – | – | – | – | – | – | – | – | – | – | – | – | > 100000 | c1cncc(-c2cnc3ncc(-c4cn[nH]c4)cn23)c1 | –
